# Source: patent US7259140B2, “Heparin-binding peptides and uses thereof” (Thomas Jefferson University, priority 2003, dated 2007)
# Bridge positions count the residues as written; N and C are the ends. Peptide text beside a SMILES is read from it.
# How the values were obtained:
# [1] = test system: Lovenox ® Activity in Blood from Patients Treated with Lovenox ®; experiment: Neutralizing Lovenox activity in blood from patients treated with Lovenox (anti-Factor Xa assay); assay type: biochemical, human; conditions: for Lovenox ® Neutralized: Peptide 12 μg/ml
# Description: Blood was obtained from volunteers who were being treated with Lovenox® for their medical conditions after obtaining signatures on informed consent forms as approved by the Institutional Review Board. The assays to test neutralization of Lovendx® were performed as described for Table 2. A dose response from 1-60 μg/ml was evaluated as in Table 2.
# The dose response pattern for the effective peptides was similar to the dose response in control plasma to which Lovenox® had been added. Each data point represents the mean and standard deviation of triplicate analyses on the same sample of blood from each patient.
# [2] = test system: anti-Factor Xa Activity of the Low Molecular Weight Heparin Lovenox ®; experiment: Anti-Factor Xa assay (Stachrom Heparin kit): neutralization of Lovenox in citrate or plasma in vitro; assay type: biochemical, human; conditions: for Lovenox ® Neutralized: Lovenox 0.7 U/ml; for anti-LMWH effect in citrate compared with plasma: Table 2A
# Description: The ability of peptides such as (ARKKAAKA)3VLVLVLVL (SEQ ID NO:5) to neutralize the anti-Factor Xa activity of UFH and LMWH in vitro was tested using the Stachrom Heparin kit (Diagnostica Stago), a standard hematology laboratory assay used to measure the anti-Factor Xa activity of heparin. The assay was performed using the low molecular weight heparin enoxaparin sodium (Lovenox®, Aventis Pharmaceuticals, Inc.), unfractionated heparin (UFH), or the non-heparin glycosaminoglycan danaparoid sodium (Orgaran®, Organon Inc., West Orange, N.J.) in 0.32% citrate or in plasma anticoagulated with 0.32% citrate. Enoxaparin is commonly used clinically as a low molecular weight heparin (LMWH). Danaparoid is commonly used clinically as a non-heparin glycosaminoglycan anticoagulant. Currently, the only FDA approved drug to target UFH is protamine, which is not effective in vivo against LMWH or a non-heparin glycosaminoglycan such as danaparoid. Buffer and ATIII are added to form the heparin/ATIII complex, peptide is added, then Factor Xa, reporter dye substrate for Factor Xa activity, and stop solution, and the dye concentration is read at 405 nm. The absorbance of the dye increases with increasing Factor Xa activity, and thus is inversely proportional to the heparin (anti-Factor Xa activity) concentration. Peptides were tested in plasma obtained from three volunteers (A, B, and C). Platelet function inhibitors PG12 and theophylline were added to the blood immediately upon collection.
# Results. […] (ARKKAAKA)3VLVLVLVL (SEQ ID NO:5) and VLVL(ARKKAAKA)3ARKKCAKA (SEQ ID NO:38) were able to neutralize about 0.4 U/ml anti-Factor Xa activity of LMWH at a concentration of 12 μg/ml, which would be an effective dose for patients. (AKKARA)6 (SEQ ID […]), (ARKKAAKA)4 (SEQ ID NO:31) and (ARKKAAKA)3ARKKCAKA […] 0.3-0.35 U/ml. In contrast, 12 μg protamine only neutralized about 0.25 U/ml of LMWH under these conditions.
# [3] = Affinity coelectrophoresis (ACE) of peptide binding to radiolabeled low Mr heparin; set-up: species or system pig; conditions: pH 7.0, mean and standard deviation of four assays, read-out: Kd (nM), affinity for low molecular weight heparin
# Text: Preparation of Radiolabeled Heparin. Whole heparin from pig intestinal mucosa (Sigma) was tyramine end-labeled and radiolabeled with Na^125I (Amersham, Pharmacia Biotech, Inc., Piscataway, N.J.) to an average specific activity≅1.0×10^7 CPM/μg as described (San Antonio, J. D., et al., Biochemistry, 32:4746-4755, 1993). Radiolabeled heparin was fractionated on Sephadex G-100 (Bio-Rad Laboratories, Hercules, Calif.) and the final≅12% of material to elute was retained as the low Mr material of ≦6,000 (Jordan, R., D. Beeler, and R. Rosenberg, J. Biol. Chem., 254:2902-2913, 1979; Laurent, T. C., et al., Biochem. J., 175:691-701, 1978).
# Analysis of Peptide-Heparin Interactions by Affinity Coelectrophoresis (ACE). ACE was used to study interactions between peptides and low molecular weight (low Mr) heparin (WO00/45831). In ACE, trace concentrations of radiolabeled heparin are electrophoresed through agarose lanes containing peptides at various concentrations. These analyses are used to determine the dissociation constants (Kd's). The electrophoretic patterns of radiolabeled heparin are then visualized using a phosphorimager, and the dissociation constant (Kd) corresponds to the protein concentration at which the heparin is half shifted from being fully mobile at very low protein concentrations to maximally retarded at saturating protein concentrations. The lower the Kd value, the higher the affinity.
# Binding of radiolabeled heparin to peptides was studied by ACE as detailed elsewhere (San Antonio, J. D., et al., Biochemistry, 32:4746-4755, 1993). […] Briefly, peptides were dissolved in 1×ACE running buffer, 50 mM sodium 3-(N-morpholino)-2-hydroxypropanesulfonate (MOPSO, Sigma)/125 mM sodium acetate, pH 7.0, and serially diluted in running buffer at 2× concentrations. Peptides were then mixed 1:1 with 2% agarose/1% CHAPS, 3-[(3-cholamidopropyl)dimethylammonio]-1-propanesulfonate, (Boehringer Mannheim, Indianapolis, Ind.), and loaded into wells of a 1% agarose gel. Radiolabeled heparin was then loaded in a slot on the anode side of the gel, and electrophoresed through the peptide-containing wells, towards the cathode. Gels were dried and PG mobility was measured with a Phosphorimager (Molecular Dynamics, Sunnyvale, Calif.) by scanning each protein lane and determining the relative radioactivity content per 88-μm pixel through the length of the lane. Retardation coefficient (R) measurements, binding isotherm curve fittings, and apparent Kd value determinations were calculated as detailed previously (Lee, M. K., and A. D. Lander, Proc. Natl. Acad. Sci. USA, 88:2768-2772, 1991; San Antonio, J. D., et al, Biochemistry, 32:4746-4755, 1993).
# Retardation coefficients (R) for the migration of low Mr 1^25I-tyramine-heparin through peptides were determined from ACE gel electrophoretograms, and are plotted against peptide concentration. Smooth curves represent non-linear least-squares fits to the equation R=R∞/{1+(Kd/[peptide])^n}.
# [4] = blood of Lovenox-treated Patient Number 1
# [5] = blood of Lovenox-treated Patient Number 2
# [6] = blood of Lovenox-treated Patient Number 3
# [7] = blood of Lovenox-treated Patient Number 4
# [8] = blood of Lovenox-treated Patient Number 5
# [9] = blood of Lovenox-treated Patient Number 8
# [10] = blood of Lovenox-treated Patient Number 9
# [11] = blood of Lovenox-treated Patient Number 10
# [12] = blood of Lovenox-treated Patient Number 11
Molecule,"Lovenox ® Neutralized [1, 4] [U/ml]","Lovenox ® Neutralized [1, 5] [U/ml]","Lovenox ® Neutralized [1, 6] [U/ml]","Lovenox ® Neutralized [1, 7] [U/ml]","Lovenox ® Neutralized [1, 8] [U/ml]","Lovenox ® Neutralized [1, 9] [U/ml]","Lovenox ® Neutralized [1, 10] [U/ml]","Lovenox ® Neutralized [1, 11] [U/ml]","Lovenox ® Neutralized [1, 12] [U/ml]","Lovenox ® Neutralized ([2]; 1 μg/ml Peptide, A Plasma) [U/ml]","Lovenox ® Neutralized ([2]; 1 μg/ml Peptide, B Plasma) [U/ml]","Lovenox ® Neutralized ([2]; 1 μg/ml Peptide, C Plasma) [U/ml]","Lovenox ® Neutralized ([2]; 1 μg/ml Peptide, Citrate) [U/ml]","Lovenox ® Neutralized ([2]; 6 μg/ml Peptide, A Plasma) [U/ml]","Lovenox ® Neutralized ([2]; 6 μg/ml Peptide, B Plasma) [U/ml]","Lovenox ® Neutralized ([2]; 6 μg/ml Peptide, C Plasma) [U/ml]","Lovenox ® Neutralized ([2]; 6 μg/ml Peptide, Citrate) [U/ml]","Lovenox ® Neutralized ([2]; 12 μg/ml Peptide, A Plasma) [U/ml]","Lovenox ® Neutralized ([2]; 12 μg/ml Peptide, B Plasma) [U/ml]","Lovenox ® Neutralized ([2]; 12 μg/ml Peptide, C Plasma) [U/ml]",further results
"C[C@@H]1NC(=O)[C@H](C)NC(=O)[C@H](CCCCN)NC(=O)[C@H](CCCCN)NC(=O)[C@H](CCCNC(=N)N)NC(=O)[C@H](C)NC(=O)[C@H](C)NC(=O)[C@H](CCCCN)NC(=O)[C@H](C)NC(=O)[C@H](C)NC(=O)[C@H](CCCCN)NC(=O)[C@H](CCCCN)NC(=O)[C@H](CCCNC(=N)N)NC(=O)[C@H](C)NC(=O)[C@@H](N)CSSC[C@@H](C(=O)O)NC(=O)[C@H](C)NC(=O)[C@H](CCCCN)NC(=O)[C@H](C)NC(=O)[C@H](C)NC(=O)[C@H](CCCCN)NC(=O)[C@H](CCCCN)NC(=O)[C@H](CCCNC(=N)N)NC(=O)[C@H](C)NC(=O)[C@H](C)NC(=O)[C@H](CCCCN)NC(=O)[C@H](C)NC(=O)[C@H](C)NC(=O)[C@H](CCCCN)NC(=O)[C@H](CCCCN)NC(=O)[C@H](CCCNC(=N)N)NC(=O)[C@H](C)NC(=O)[C@H](C)NC(=O)[C@H](CCCCN)NC1=O [C(ARKKAAKA)4C, cyclized C(ARKKAAKA)4C] (H-CARKKAAKAARKKAAKAARKKAAKAARKKAAKAC-OH; disulfide 1-34)",0.164,0.132,0.119,0.337,0.230,0.163,0.418,0.302,0.175,0.034 ± 0.019,0.022 ± 0.009,0.011 ± 0.005,0.058 ± 0.039,0.102 ± 0.012,0.126 ± 0.039,0.092 ± 0.014,0.245 ± 0.064,0.213 ± 0.048,0.251 ± 0.098,0.218 ± 0.047,"Lovenox ® Neutralized ([2]; 12 μg/ml Peptide, Citrate): 0.474 ± 0.024 U/ml; Lovenox ® Neutralized ([2]; 60 μg/ml Peptide, A Plasma): 0.496 ± 0.016 U/ml; Lovenox ® Neutralized ([2]; 60 μg/ml Peptide, B Plasma): 0.506 ± 0.012 U/ml; Lovenox ® Neutralized ([2]; 60 μg/ml Peptide, C Plasma): 0.522 ± 0.009 U/ml; Lovenox ® Neutralized ([2]; 60 μg/ml Peptide, Citrate): 0.554 ± 0.023 U/ml; Lovenox ® Neutralized ([2]; 120 μg/ml Peptide, A Plasma): 0.551 ± 0.031 U/ml; Lovenox ® Neutralized ([2]; 120 μg/ml Peptide, B Plasma): 0.538 ± 0.013 U/ml; Lovenox ® Neutralized ([2]; 120 μg/ml Peptide, C Plasma): 0.592 ± 0.019 U/ml; Lovenox ® Neutralized ([2]; 120 μg/ml Peptide, Citrate): 0.525 ± 0.028 U/ml; anti-LMWH effect in citrate compared with plasma [2]: greater anti-LMWH effect in citrate than in plasma; Kd [3]: 38 ± 13 nM"
Protamine [reference compound],0.016,0.022,0,0.092,0.013,0.018,0.244,0.069,0.021,0.038 ± 0.036,0.086 ± 0.004,0.070 ± 0.050,0.050 ± 0.016,0.177 ± 0.033,0.200 ± 0.026,0.232 ± 0.065,0.256 ± 0.060,0.232 ± 0.067,0.249 ± 0.039,0.285 ± 0.041,"effectiveness in neutralizing Lovenox in blood of patients [1]: neutralized Lovenox® in the blood of just one patient; Lovenox ® Neutralized ([2]; 12 μg/ml Peptide, Citrate): 0.591 ± 0.032 U/ml; anti-Factor Xa activity of LMWH neutralized ([2]; 12 μg/ml, plasma): about 0.25 U/ml; Lovenox ® Neutralized ([2]; 60 μg/ml Peptide, A Plasma): 0.515 ± 0.066 U/ml; Lovenox ® Neutralized ([2]; 60 μg/ml Peptide, B Plasma): 0.574 ± 0.022 U/ml; Lovenox ® Neutralized ([2]; 60 μg/ml Peptide, C Plasma): 0.465 ± 0.021 U/ml; Lovenox ® Neutralized ([2]; 60 μg/ml Peptide, Citrate): 0.570 ± 0.033 U/ml; Lovenox ® Neutralized ([2]; 120 μg/ml Peptide, A Plasma): 0.562 ± 0.035 U/ml; Lovenox ® Neutralized ([2]; 120 μg/ml Peptide, B Plasma): 0.592 ± 0.037 U/ml; Lovenox ® Neutralized ([2]; 120 μg/ml Peptide, C Plasma): 0.499 ± 0.16 U/ml; Lovenox ® Neutralized ([2]; 120 μg/ml Peptide, Citrate): 0.480 ± 0.058 U/ml; anti-LMWH effect in citrate compared with plasma [2]: greater anti-LMWH effect in citrate than in plasma"
